Assay results as given in patent US8071533B2, “Compositions and methods for modulating store-operated calcium entry” (University of Medicine and Dentistry of New Jersey, priority 2006, dated 2011).

Legend:
[1] = tested on: SOCE in NRP-154 cells; settings: 10 μM 2-APB, NRP-Con and NRP-Bax cells, TG-depleted
Method: The role of SOCE in Ca signaling in NRP-154 cells was examined. […] Following ER Ca depletion (200 s treatment), 0.5 mM MnCl2 was added into cuvettes containing 1×10^6 NRP-154 cells loaded with Fura-2. The quenching of Fura-2 fluorescence by the entry of Mn^2+ provided a quantitative assay of SOCE. Specifically, the slope of reduction of Fura-2 fluorescence with time reflected the degree of SOCE activation.

[2] = tested on: SOCE in C2C12 myotubes; experiment: SOCE by Mn quenching of Fura-2 in C2C12 myotubes; type: cell-based, mouse
Method: HEPM cells were loaded with 10 μM Fura-2 AM (Invitrogen, Carlsbad, Calif.) for 45 min at 37° C. and allowed to de-esterify for 15 min at 25° C. Cells were then harvested and re-suspended in balanced salt solution (BSS) containing (in mM): 140 NaCl, 2.8 KCl, 2 CaCl2, 2 MgCl2, 10 HEPES, pH 7.2. 2.5×10^6 cells were transferred into the cuvette system of a PTI spectrofluorometer (Photon Technology International, Princeton, N.J.) and the changes in [Ca]i were measured as changes in the ratio of Fura-2 fluorescence at excitation wavelength of 350 nm (F350) and 380 nm (F380), following exposure to various concentrations of thapsigargin, ionomycin or caffeine and ryanodine (C/R). For measurement in 0.5 mM EGTA, cells were centrifuged and re-suspended in BSS without CaCl2, and 0.5 mM EGTA was added immediately before recordings. […] All experiments were conducted at 25±2° C.
(§1) Manganese (Mn^2+) is known to be able to permeate into cells via store-operated Ca channels (SOCs), but is impervious to surface membrane extrusion processes or SR uptake by Ca pumps. […] Briefly, to measure the Mn^2+ influx rate through the SOC machinery, thapsigargin (TG), or C/R, was applied to cultured cells or C2C12 myotubes to induce SR Ca depletion in 0 mM extracellular CaCa ([CaCa]o), then 0.5 mM Mn^2+ was added to the extracellular solution. The quenching of Fura-2 fluorescence by Mn^2+ was measured at the Ca-independent excitation wavelength of Fura-2 (360 nm). The decay of Fura-2 fluorescence upon Mn^2+ addition was expressed as percent decrease in Fura-2 fluorescence per unit time (the initial fluorescence is set equal to 100%). For all measurements of SOCE by Mn^2+ quenching, the maximally quenched fluorescence signal was established at the end of the experiment by lysing the cells with 1% Triton, and set equal to 0% fluorescence.

[3] = tested on: human embryonic palatal mesenchymal (HEPM) cells; experiment: Intracellular Ca store release in HEPM cells (Fura-2 ratio, PTI cuvette); type: cell-based; settings: for Mobilization of Ca from endoplasmic reticulum (ER) stores: HEPM cells loaded with Fura-2
Method: HEPM cells were loaded with 10 μM Fura-2 AM (Invitrogen, Carlsbad, Calif.) for 45 min at 37° C. and allowed to de-esterify for 15 min at 25° C. Cells were then harvested and re-suspended in balanced salt solution (BSS) containing (in mM): 140 NaCl, 2.8 KCl, 2 CaCl2, 2 MgCl2, 10 HEPES, pH 7.2. 2.5×10^6 cells were transferred into the cuvette system of a PTI spectrofluorometer (Photon Technology International, Princeton, N.J.) and the changes in [Ca]i were measured as changes in the ratio of Fura-2 fluorescence at excitation wavelength of 350 nm (F350) and 380 nm (F380), following exposure to various concentrations of thapsigargin, ionomycin or caffeine and ryanodine (C/R). For measurement in 0.5 mM EGTA, cells were centrifuged and re-suspended in BSS without CaCl2, and 0.5 mM EGTA was added immediately before recordings. Measurement of Ca in individual C2C12 myotubes were performed as described before (Shin, D. W. et al. 2003. J. Biol. Chem. 278:3286-3292). All experiments were conducted at 25±2° C.

[4] = tested on: SOCE in HEPM cells; experiment: SOCE by Mn quenching of Fura-2 in HEPM cells; type: cell-based, human
Method: as §1

[5] = biological target: T1, STIM1 (Homo sapiens, UniProt Q13586); experiment: Co-immunoprecipitation of P311 with STIM1 in CHO cell lysates; type: binding; settings: anti-P311 and anti-STIM1
T1 construct: host or cells: CHO cells (transient transfection)
Method: (§2) Next, the interaction of P311 with SOCE molecular machinery was examined experimentally. The interaction of P311 with known components of SOCE, such as STIM1 and Orai1, was studied. A GFP-myc-Orai1 plasmid and the mammalian expression plasmid containing the human STIM1 cDNA (OriGene, Inc.) were used. The plasmids were transfected into CHO cells and 36 hours after transfection, total cell lysates from CHO cells transiently expressing GFP-myc-Orai1 were incubated with either a polyclonal antibody against P311, or an anti-myc monoclonal antibody, with normal rabbit IgG serving as the control. […] Similar results were obtained when co-IP assays were repeated using reversible cross-linker DSP and different detergents in cell lysis buffer, including Triton X-100, NP-40 and CHAPS.

[6] = biological target: T2, Orai1 (Homo sapiens, UniProt Q96D31); experiment: Co-immunoprecipitation of P311 with Orai1 in CHO cell lysates; type: binding; settings: CHO lysates expressing GFP-myc-Orai1; anti-myc and anti-P311
T2 construct: expressed in transfected cells; host or cells: CHO cells (transient transfection, lysate 36 h after transfection)
Method: as §2

[7] = Solubility of recombinant P311 expressed in E. coli; type: physicochemical; settings: E. coli lysate, a portion of the overexpressed protein
Method: Using standard recombinant DNA technology, the full-length P311 protein was cloned into a T7-based expression plasmid with a 6× His-tag at either the amino-terminus (pET15b, Novagen) or the carboxy-terminus (pET21b, Novagen) and as a fusion protein with glutathione S-transferase (GST) in plasmid pGEX-2T (Pharmacia). In addition, the untagged P311 was cloned into a T7-based bacterial expression vector pG5 (Alexander, P. et al. 1992. Biochemistry 31:3597-3603). The bacterial host is grown for 12-14 hours at room temperature or for 4 hours at 37° C. after induction with 0.2 mM IPTG. Robust expression for the amino-terminal His6-tagged P311 protein […] was observed; the amino-terminal His6-tagged P311 protein was soluble. The soluble fraction of the His6-tagged P311 protein in the E. coli lysate was purified over a Ni-NTA agarose column. The protein was eluted by 250 mM immidazole and further purified by […] chromatography (Source-15S, Pharmacia) and gel-filtration chromatography (Superdex-200, Pharmacia). The P311 protein was purified to greater than 80% homogeneity as judged on SDS-PAGE. The concentration of P311 was determined by spectroscopic measurement at 280 nm.

T2 sequence (Q96D31 whole entry, species assumed): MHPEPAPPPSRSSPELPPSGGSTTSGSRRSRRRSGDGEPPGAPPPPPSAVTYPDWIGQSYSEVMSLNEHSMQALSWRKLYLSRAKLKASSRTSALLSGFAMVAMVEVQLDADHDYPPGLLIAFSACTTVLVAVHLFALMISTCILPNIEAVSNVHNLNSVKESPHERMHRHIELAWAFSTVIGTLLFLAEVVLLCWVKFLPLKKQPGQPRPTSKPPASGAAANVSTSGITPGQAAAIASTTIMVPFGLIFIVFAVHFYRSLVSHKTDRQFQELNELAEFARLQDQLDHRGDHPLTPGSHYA
T1 sequence (Q13586 23-685): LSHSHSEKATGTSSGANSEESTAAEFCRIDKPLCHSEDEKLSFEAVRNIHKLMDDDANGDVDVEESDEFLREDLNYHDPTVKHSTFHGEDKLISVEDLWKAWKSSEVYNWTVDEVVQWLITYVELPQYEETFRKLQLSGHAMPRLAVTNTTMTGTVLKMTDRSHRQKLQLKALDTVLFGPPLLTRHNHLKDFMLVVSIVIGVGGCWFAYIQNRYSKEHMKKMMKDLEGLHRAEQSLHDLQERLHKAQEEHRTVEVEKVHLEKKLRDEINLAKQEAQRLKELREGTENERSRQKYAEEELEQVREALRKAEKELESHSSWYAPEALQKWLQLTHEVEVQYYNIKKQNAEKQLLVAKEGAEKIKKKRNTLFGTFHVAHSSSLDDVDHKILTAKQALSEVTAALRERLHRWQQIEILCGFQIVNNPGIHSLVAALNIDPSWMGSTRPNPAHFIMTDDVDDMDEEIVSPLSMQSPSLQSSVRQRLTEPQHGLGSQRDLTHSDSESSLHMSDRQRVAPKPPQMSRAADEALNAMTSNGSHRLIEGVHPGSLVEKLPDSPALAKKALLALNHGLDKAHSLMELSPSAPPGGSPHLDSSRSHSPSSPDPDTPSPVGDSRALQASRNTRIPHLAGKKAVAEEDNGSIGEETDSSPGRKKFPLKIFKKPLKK

## NCCOB(c1ccccc1)c1ccccc1 [2-APB, 2-aminoethoxydiphenyl borate]
[1]
  Effect on SOCE (Mn quenching of Fura-2): inhibited SOCE
[2]; C2C12 myotubes
  Effect on PTZ-triggered Mn quenching of Fura-2 fluorescence: inhibited
[2]; C2C12 myotubes, 2-APB 20 μM
  Effect on TG-initiated Mn entry through SOCE: blocked

## [K+] [potassium]
[3]
  Mobilization of Ca from endoplasmic reticulum (ER) stores: not responsive

## Nc1ncnc2c1ncn2[C@@H]1O[C@H](COP(=O)(O)OP(=O)(O)OP(=O)(O)O)[C@@H](O)[C@H]1O [ATP, adenosine triphosphate]
[3]; ATP 1 or 3 mM, LPS-treated HEPM cells
  Ca release on ATP stimulation in LPS-treated cells: no effect
[3]
  Mobilization of Ca from endoplasmic reticulum (ER) stores: not responsive

## C1CCc2nnnn2CC1 [PTZ, pentylenetetrazol]
[2]; C2C12 myotubes transfected with shRNA against P311
  Effect on SOCE in shRNA-treated myotubes: absent
[2]; C2C12 myotubes treated with PTZ
  SR Ca filling status: without affecting the SR Ca filling status
[2]; C2C12 myotubes, 20 mM PTZ, no SR Ca depletion
  Activation of SOCE (Mn entry): induced the activation of SOCE

## C[C@H](CCC(=O)O)C[C@H](C)C[C@H](C)C(=O)/C=C(\O)[C@H](C)C[C@H](C)C/C=C/[C@@H](C)[C@@H](O)[C@@H](C)[C@@H](O)C[C@@H]1CC[C@@](C)([C@H]2CC[C@@](C)([C@@H](C)O)O2)O1 [ionomycin]
[3]
  Mobilization of Ca from endoplasmic reticulum (ER) stores: reveals a large store of Ca available for release
[4]
  Activation of SOCE following Ca store depletion: rapid activation of SOCE

## C/C=C(/C)C(=O)O[C@H]1C(C)=C2[C@H]([C@@H]1OC(=O)CCCCCCC)[C@@](C)(OC(C)=O)C[C@H](OC(=O)CCC)[C@@]1(O)[C@H]2OC(=O)[C@@]1(C)O [thapsigargin]
[4]
  Activation of SOCE following Ca store depletion: rapid activation of SOCE

B1: P311: 68 amino acid, 8 kDa cytosolic protein (SEQ ID NO: 1 human, SEQ ID NO: 10 mouse) regulating SOCE (protein)
chain: MVYYPGLLVWVSQEPFLYKEMEGSLTKGRLPVPKEVNRKKLEEARAASMTPPGSHELCFPNISYL
[5]
  Co-immunoprecipitation with STIM1: could not immunoprecipitation
[6]
  Co-immunoprecipitation with Orai1: physical interaction between P311 and Orai1

B2: His6-tagged P311: full-length P311 with amino-terminal 6x His-tag expressed in E. coli (protein, UniProt Q16612 1-68, looked up)
chain: MVYYPELFVWVSQEPFPNKDMEGRLPKGRLPVPKEVNRKKNDETNAASLTPLGSSELRSPRISYLHFF
modifications: full-length N-terminal His6 tag
notes: full-length P311 with amino-terminal 6x His-tag expressed in E. coli
[7]
  Solubility of overexpressed protein: soluble
